# Data taken from patent publication US20120302526A1, “METHODS FOR TREATING POST-TRAUMATIC STRESS DISORDER” (Regents of the University of Colorado, a body corporate, priority 2011, published 2012).
# Columns and labels:
# [1] = system: TBI induced anxiety-like behavior (LFPI animals); assay: Freezing in test chamber after immediate shock, peri-injury MN166 (Example 3, FIG. 4B); format: in vivo, rats; conditions: 1 and 3 months post-injury, untreated LFPI approximately 60% (p<0.003 and 0.0001)
# From the text: Animals with LFPI froze approximately 3-4 times longer (30-40%) than Naïve animals (<10%) when placed in the test chamber (FIG. 4A). […] However, LFPI animals froze substantially more (approximately 60%) after shock compared to LFPI animals receiving no shock (30-35%; p<0.001 and 0.003, respectively). […] LFPI animals consistently froze more than all other groups, at all time points, with or without shock. […] However, by 3 months this difference was no longer significant (p<0.493).
# [2] = system: TBI induced anxiety-like behavior (LFPI rats); assay: Freezing in a novel context after LFPI and foot shock, post-injury ibudilast (Example 1, FIG. 1); format: in vivo, Sprague-Dawley rats
# Method: Twenty-four adult viral-free male Sprague-Dawley rats (275-325 g; Harlan Laboratories, Madison, Wis.) were housed in pairs in temperature (23±3° C.) and light (12:12 light:dark) controlled rooms with ad libitum access to food and water. All procedures were performed in accordance with University of Colorado Institutional Animal Care and Use Committee guidelines for the humane use of laboratory rats in biological research. Rats were randomly assigned to 1 of 4 groups (n=6/group; Sham-operated/vehicle-injected, Sham-operated/ibudilast-injected, LFPI/vehicle-injected, LFPI/ibudilast-injected). All rats were shocked approximately 2 weeks following LFPI to enhance freezing behavior in a novel context (a natural fear reaction in this species). After freezing behavior had been established (1 month post-injury) animals were subjected to a 5-day regimen of ibudilast or vehicle (corn oil) injections (once daily for 5 days). Freezing behavior was again assessed at 2 weeks, 1 month, 2 months, and at 3 months post-injection. Lateral Fluid Percussion Injury. LFPI rats were anesthetized with halothane (4% induction, 2.0-2.5% maintenance) and mounted in a stereotaxic frame. The lateral fluid percussion injury used in this study utilized a PV820 Pneumatic PicoPump (World Precision Instruments, Inc., Sarasota, Fla.) to deliver standardized pressure pulses of air to a standing column of fluid. A 3.0 mm diameter craniotomy was centered at 3 mm caudal to bregma and 4.0 mm lateral of the sagittal suture, with the exposed dura remaining intact. A female Luer-Loc hub (inside diameter of 3.5 mm) was secured over the craniotomy with cyanoacrylate adhesive. Following hub implantation, the animal was removed from the stereotaxic frame and connected to the LFPI apparatus. […] Weight was recorded prior to each dosing. […] Rats were tested (5 minutes) and the percent of freezing behavior was assessed. Freezing was defined as the absence of movement except for heart beat/respiration, and was recorded in 10 sec intervals. Statistical Analyses: Results are expressed as mean±SEM. […]
# [3] = system: TBI induced anxiety-like behavior (LFPI rats); assay: Freezing in shock chamber after fear conditioning, peri-injury ibudilast (Example 2, FIG. 2); format: in vivo; conditions: 10 mg/kg in corn oil, 5 days (2 days before LFPI, day of LFPI, 2 days after); 1 and 3 months post-injury
# Method: All animals were fear conditioned by receiving shock (1.5 mA; 3-sec) immediately upon being placed in an experimental chamber. Freezing behavior was then measured the following day upon being replaced in the same chamber. Naïve (no surgical procedures) and Sham (LFPI surgery without pressure pulse) froze at a typical rate of approximately 15-20% when measured at 1 and 3 months post-injury (FIG. 2). In contrast, cohorts who received LFPI froze approximately 3 times as long at both time points.
# [4] = system: TBI induced anxiety-like behavior (LFPI animals); assay: Freezing in a novel context, shock at 1 month post-injury, peri-injury MN166 (Example 3, FIG. 3B); format: in vivo, rats; conditions: 10 mg/kg s.c. 5 days peri-injury
# From the text: Freezing behavior in rats was elicited substantially in the manner described before. When freezing behavior was made the dependent variable after placement in a novel context, large and stable differences between Naïve and LFPI animals were seen (FIG. 3). LFPI animals froze approximately 20-40% of the time compared to 5-10% for Naïve animals (FIG. 3A). Increased freezing behavior in LFPI compared to Naïve animals was significant at all time points (p<0.001). […] These animals included Naïve and LFPI groups as in FIG. 3A, but also LFPI+MN166 (Animals received a 5-day dosing regimen in which they received once-daily ibudilast injections 24 hr prior to LFPI, the day of surgery and LFPI, and 3 days following LFPI (10 mg/kg, 1 ml/kg subcutaneously in corn oil)) and a Sham surgery group. Overall, LFPI animals froze substantially more than Naïve, LFPI+MN166, and Sham groups at the 1, 2 and 3 month time points (p<0.001). Similar to the animals of FIG. 3A, at 2 weeks and 1 month post-injury, LFPI animals froze approximately 20-30% of the time in the novel context compared to approximately 5% for Naïve animals (p<0.001).
compound,measurement,setting,value
"CC(C)C(=O)c1c(C(C)C)nn2ccccc12 [Ibudilast, 2-Methyl-1-[2-(1-methylethyl)pyrazolo[1,5-a]pyridin-3-yl]-1-propanone]",percent freezing in test chamber after shock,[1],25-35%
same,freezing behavior of treated LFPI rats vs untreated LFPI rats,"[2]; LFPI rats, 10 mg/kg s.c. once daily for 5 days at 1 month post-injury, up to 3 months post-treatment, p<0.01",froze substantially less
same,freezing compared to untreated injured animals,"[2]; LFPI rats, 10 mg/kg s.c. once daily for 5 days, started 1 month post-injury, P<0.05",about 60%
same,influence on freezing of control animals,"[2]; Sham-operated rats, 10 mg/kg s.c. once daily for 5 days, all post-injection time-points",no influence on control animals
same,freezing behavior vs LFPI animals receiving vehicle injections,[3],substantially less
same,percent freezing in novel context,"[4]; 3 months post-injury, untreated LFPI 50%, Naïve 8%, Sham 10%",14%
same,"freezing compared to untreated LFPI animals, novel context","[4]; significant at 1, 2 and 3 months post-injury (p<0.01, 0.001, 0.0001)",greatly reduced freezing
